Test results taken from patent US10822342B2, “Pyrazolopyrimidine derivatives as NIK inhibitors” (Janssen Pharmaceutica NV, priority 2014, dated 2020).

Assays:
[1] = target: Recombinant Human NF-kappaB-Inducing Kinase (NIK/MAP3K14) (Homo sapiens (Human), UniProt Q99558); assay: Inhibition of auto-phosphorylation of recombinant human NIK/MAP3K14 activity (AlphaScreen); type: biochemical; conditions: GST-tagged NIK/MAP3K14 0.2 nM, 25 microM ATP, 1 h at 25° C.; averaged over all measurements on all batches; read-out: Alpha-Screen IC50
Procedure: Inhibition of Auto-Phosphorylation of Recombinant Human NF-kappaB-Inducing Kinase (NIK/MAP3K14) Activity (AlphaScreen®)
NIK/MAP3K14 auto-phosphorylation activity was measured using the AlphaScreen® (αscreen) format (Perkin Elmer). All compounds tested were dissolved in dimethyl sulfoxide (DMSO) and further dilutions were made in assay buffer. Final DMSO concentration was 1% (v/v) in assays. Assay buffer was 50 mM Tris pH 7.5 containing 1 mM EGTA (ethylene glycol tetraacetic acid), 1 mM DTT (dithiothreitol), 0.1 mM Na3VO4, 5 mM MgCl2, 0.01% Tween® 20. Assays were carried out in 384 well Alphaplates (Perkin Elmer). Incubations consisted of compound, 25 microM Adenosine-5′-triphosphate (ATP), and 0.2 nM NIK/MAP3K14. Incubations were initiated by addition of GST-tagged NIK/MAP3K14 enzyme, carried out for 1 h at 25° C. and terminated by addition of stop buffer containing anti-phospho-IKK Ser176/180 antibody. Protein A Acceptor and Glutathione-Donor beads were added before reading using an EnVision® Multilabel Plate Reader (Perkin Elmer). Signal obtained in the wells containing blank samples was subtracted from all other wells and IC50's were determined by fitting a sigmoidal curve to % inhibition of control versus Log10 compound concentration.

JJN-3 cells = assay: Antiproliferative activity on JJN-3 cells (CellTiter-Glo); type: cell-based; conditions: Homo sapiens, 72 hr treatment, averaged values
Procedure: (§1) Determination of Antiproliferative Activity on LP-1, L-363 and JJN-3 Cells
(§2) All compounds tested were dissolved in DMSO and further dilutions were made in culture medium. Final DMSO concentration was 0.3% (v/v) in cell proliferation assays. Viability was assessed using CellTiter-Glo cell viability assay kit (Promega). The human LP-1, L-363 and JJN-3 cells (DSMZ) were cultured in RPMI 1640 medium supplemented with 2 mM L-glutamine, and 10% fetal calf serum (PAA). Cells were routinely kept as suspension cells at 37° C. in a humidified 5% CO2 atmosphere. Cells were passaged at a seeding density of 0.2×10^6/ml twice a week. Cells were seeded in black tissue culture treated 96-well plates (Perkin Elmer). Densities used for plating ranged from 2,000 to 6,000 cells per well in a total volume of 75 μl medium. After twenty four hours, drugs and/or solvents were added (25 μl) to a final volume of 100 μl. Following 72 hr of treatment plates were removed from the incubator and allowed to equilibrate to room temperature for approx 10 min. 100 μl CellTiter-Glo reagent was added to each well that was then covered (Perkin Elmer Topseal) and shaken on plate shaker for 10 min. Luminescence was measured on a HTS Topcount (Perkin Elmer). Within an experiment, the results for each treatment were the mean of 2 replicate wells. For initial screening purposes, compounds were tested using a 9 point dilution curve (serial 1:3 dilutions). For each experiment, controls (containing no drug) and a blank incubation (containing cells read at the time of compound addition) were run in parallel. The blank value was subtracted from all control and sample values. For each sample, the mean value for cell growth (in relative light units) was expressed as a percentage of the mean value for cell growth of the control.

L-363 cells = assay: Antiproliferative activity on L-363 cells (CellTiter-Glo); type: cell-based; conditions: Homo sapiens, 72 hr treatment, averaged values
Procedure: as §1, §2

LP-1 cells = assay: Antiproliferative activity on LP-1 cells (CellTiter-Glo); type: cell-based; conditions: Homo sapiens, 72 hr treatment, averaged values
Procedure: as §1, §2

[2] = test system: P-IKKα levels in L363 cells; assay: Effect of compounds on P-IKKα levels in L363 cells; type: cell-based; conditions: Homo sapiens, L-363, BAFF stimulated, 2 hr treatment, Mesoscale sandwich immuno-assay, averaged values, read-out: IKKα Cellular IC50
Procedure: Effect of Compounds on P-IKKα Levels in L363 Cells
All compounds tested were dissolved in DMSO and further dilutions were made in culture medium. Final DMSO concentration was 1% (v/v) in cell assays. The human L363 cells (ATCC) were cultured in RPMI 1640 medium supplemented with GlutaMax and 10% fetal calf serum (PAA). Cells were routinely maintained at densities of 0.2×10^6 cells per ml—1×10^6 cells per ml at 37° C. in a humidified 5% CO2 atmosphere. Cells were passaged twice a week splitting back to obtain the low density. Cells were seeded in 96 well plates (Nunc 167008) at 2×10^6 per ml media in a volume of 75 μl per well plus 25 μl 1 μg/ml recombinant human B-cell activating factor (BAFF/BLyS/TNFSF13B). Seeded cells were incubated at 37° C. in a humidified 5% CO2 atmosphere for 24 hr. Drugs and/or solvents were added (20 μl) to a final volume of 120 μl. Following 2 hr treatment plates were removed from the incubator and cell lysis was achieved by the addition of 30 μl 5× lysis buffer followed by shaking on a plate shaker at 4° C. for 10 min. At the end of this incubation lysed cells were centrifuged at 800×g for 20 min at 4° C. and the lysate was assessed for P-IKKα levels by sandwich immuno-assay carried out in anti-rabbit antibody coated Mesoscale plates. Within an experiment, the results for each treatment were the mean of 2 replicate wells. […]

Sequence of Recombinant Human NF-kappaB-Inducing Kinase (NIK/MAP3K14) (Q99558 whole entry): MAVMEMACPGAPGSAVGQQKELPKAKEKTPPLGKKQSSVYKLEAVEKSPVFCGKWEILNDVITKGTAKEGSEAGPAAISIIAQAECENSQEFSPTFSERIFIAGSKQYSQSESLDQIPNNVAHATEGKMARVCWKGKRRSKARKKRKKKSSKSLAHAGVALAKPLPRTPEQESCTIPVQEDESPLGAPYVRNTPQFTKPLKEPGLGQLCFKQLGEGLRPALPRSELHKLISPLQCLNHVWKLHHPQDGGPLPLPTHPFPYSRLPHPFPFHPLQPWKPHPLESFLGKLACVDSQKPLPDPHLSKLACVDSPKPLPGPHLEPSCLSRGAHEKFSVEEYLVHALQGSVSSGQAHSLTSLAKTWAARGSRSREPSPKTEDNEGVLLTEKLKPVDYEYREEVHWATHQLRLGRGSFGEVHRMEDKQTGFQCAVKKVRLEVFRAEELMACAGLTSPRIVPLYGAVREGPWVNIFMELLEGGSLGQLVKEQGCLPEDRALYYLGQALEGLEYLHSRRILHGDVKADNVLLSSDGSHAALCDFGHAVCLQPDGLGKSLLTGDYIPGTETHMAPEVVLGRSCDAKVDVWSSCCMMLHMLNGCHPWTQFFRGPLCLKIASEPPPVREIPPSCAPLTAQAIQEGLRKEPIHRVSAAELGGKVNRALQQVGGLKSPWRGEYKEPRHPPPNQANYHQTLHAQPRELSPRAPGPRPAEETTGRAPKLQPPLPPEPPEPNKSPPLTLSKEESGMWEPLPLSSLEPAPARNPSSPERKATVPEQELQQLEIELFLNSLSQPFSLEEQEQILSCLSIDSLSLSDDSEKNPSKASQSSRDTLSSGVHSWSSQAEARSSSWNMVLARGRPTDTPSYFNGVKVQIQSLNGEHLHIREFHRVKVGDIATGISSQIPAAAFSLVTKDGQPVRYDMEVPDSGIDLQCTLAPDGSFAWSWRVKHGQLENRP

Row | SMILES | IC50 [1] [nM] | EC50 (JJN-3 cells) [nM] | EC50 (L-363 cells) [nM] | EC50 (LP-1 cells) [nM] | IC50 [2] [nM]
1 | COCCCn1cc(-c2nc(N)nc3cn(C)nc23)c2cc(C#CC(C)(C)O)ncc21 [Compound 1] | 46 | 538 | 655 | 6780 | 
2 | [2H]C([2H])([2H])C(O)(C#Cc1cc2c(-c3nc(N)nc4cn(CC)nc34)cn(C3CN(CC4CC4)C3)c2cc1F)C([2H])([2H])[2H] [Compound 7] | 60 | 95 | 53 | 202 | 
3 | COCCCn1cc(-c2nc(N)nc3cn(C)nc23)c2cc(C#CC(C)(O)C3CC3)ncc21 (stereo not shown) [Compound 2] | 23 | 358 | 386 | 2960 | 103
4 | [2H]C([2H])([2H])C(O)(C#Cc1cc2c(-c3nc(N)nc4cn(CC)nc34)cn(C3CN(C4CC4)C3)c2cn1)C([2H])([2H])[2H] [Compound 12] | 84 | 301 | 140 | 877 | 
5 | [2H]C([2H])([2H])C(O)(C#Cc1cc2c(-c3nc(N)nc4cn(CC)nc34)cn(C3CN(CC4CC4)C3)c2cn1)C([2H])([2H])[2H] [Compound 11] | 143 | 158 | 62 | 1180 | 
6 | COCCCn1cc(-c2nc(N)nc3cn(C4CC4)nc23)c2cc(C#CC(C)(O)C3CC3)ncc21 (stereo not shown) [Compound 8] | 38 | 78 | 76 | 402 | 
7 | CCn1cc2nc(N)nc(-c3cn(CCCOC)c4cc(F)c(C#CC(C)(O)C5CC5)cc34)c2n1 (stereo not shown) [Compound 3] | 992 | 182 | 246 | 845 | 
8 | [2H]C([2H])([2H])n1cc2nc(N)nc(-c3cn(C4CCN(CC)C4)c4cc(F)c(C#CC(O)(C([2H])([2H])[2H])C([2H])([2H])[2H])cc34)c2n1 (stereo not shown) [Compound 5] | 112 | 46 | 52 | 128 | 
9 | CCn1cc2nc(N)nc(-c3cn(C4CN(C5CC5)C4)c4cnc(C#CC(C)(O)C5CC5)cc34)c2n1 (stereo not shown) [Compound 10] | 186 | 406 | 241 | 788 | 
10 | [2H]C([2H])([2H])C(O)(C#Cc1cc2c(-c3nc(N)nc4cn(CC)nc34)cn(C3CCN(CC)C3)c2cc1F)C([2H])([2H])[2H] (stereo not shown) [Compound 6] | 37 | 40 | 38 | 70 | 
11 | CCn1cc2nc(N)nc(-c3cn(CCCOC)c4cnc(C#CC(C)(O)C5CC5)cc34)c2n1 (stereo not shown) [Compound 9] | 52 | 217 | 162 | 629 | 
12 | [2H]C([2H])([2H])C(O)(C#Cc1cc2c(-c3nc(N)nc4cn(CC)nc34)cn(CCCOC)c2cc1F)C([2H])([2H])[2H] [Compound 4] | 65 | 102 | 69 | 244 | 
